In patent publication US9409866B2, “Pyridine-2-amides useful as CB2 agonists” (Hoffmann-La Roche Inc., priority 2012, dated 2016) one finds EC50 data, which are given here for 26 compounds.

Read-outs that look alike come from different tables or passages of the source.

The target in assay [1] is human CB2 receptors (Homo sapiens (Human), UniProt P34972). Description: functional cAMP assay, CHO cells expressing human CB2. It counts as cell-based. In short, it runs like this:
(§1)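 Cells are seeded 17-24 h ahead, then preincubated in Krebs Ringer bicarbonate buffer with 1 mM IBMX at 30 °C. Compounds act for 30 min at 30 °C, after which lysis and cAMP detection reagents are added for 2 h at room temperature. Time-resolved FRET gives cAMP content, and EC50 values are fitted from it.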
Background: cAMP levels reflect the balance of adenylyl cyclase and phosphodiesterase activity.

The target of assay [2] is human CB1 receptors (Homo sapiens (Human), UniProt P21554). Description: functional cAMP assay, CHO cells expressing human CB1. Type of assay: cell-based. In a few lines:
as §1

Setting [3] is: functional cAMP assay, CHO cells expressing human CB1; read-out: Human CB1 EC50.
[4] abbreviates: read-out: Human CB1 EC50; functional cAMP assay, CHO cells expressing human CB1.
Where [5] appears, read: Human CB1 EC50 (uM), functional cAMP assay, CHO cells expressing human CB1.

human CB2 receptors, sequence (P34972 whole entry): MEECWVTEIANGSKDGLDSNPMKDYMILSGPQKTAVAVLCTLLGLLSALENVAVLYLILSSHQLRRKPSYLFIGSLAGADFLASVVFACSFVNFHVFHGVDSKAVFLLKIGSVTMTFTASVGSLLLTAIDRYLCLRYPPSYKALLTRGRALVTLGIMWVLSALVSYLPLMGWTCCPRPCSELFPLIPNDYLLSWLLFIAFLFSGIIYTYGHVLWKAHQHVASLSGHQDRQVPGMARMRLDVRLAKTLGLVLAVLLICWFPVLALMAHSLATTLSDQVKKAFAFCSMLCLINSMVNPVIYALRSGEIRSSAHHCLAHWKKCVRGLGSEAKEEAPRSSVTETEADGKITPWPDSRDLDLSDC
human CB1 receptors, sequence (P21554 whole entry): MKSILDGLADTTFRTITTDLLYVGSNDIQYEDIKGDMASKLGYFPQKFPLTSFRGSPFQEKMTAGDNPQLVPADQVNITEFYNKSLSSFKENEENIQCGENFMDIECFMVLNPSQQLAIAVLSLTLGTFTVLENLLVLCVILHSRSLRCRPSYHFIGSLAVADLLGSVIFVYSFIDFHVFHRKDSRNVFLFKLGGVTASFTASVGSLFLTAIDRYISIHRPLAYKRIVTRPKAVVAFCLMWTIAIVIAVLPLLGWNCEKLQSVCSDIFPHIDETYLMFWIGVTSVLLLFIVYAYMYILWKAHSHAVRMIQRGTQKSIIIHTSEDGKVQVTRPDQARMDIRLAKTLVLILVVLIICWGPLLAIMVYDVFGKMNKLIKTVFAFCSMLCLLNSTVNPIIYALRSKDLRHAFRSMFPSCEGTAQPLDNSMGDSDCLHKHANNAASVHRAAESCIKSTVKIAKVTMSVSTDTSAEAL

Consider `Cc1nc(C(C)(CS(C)(=O)=O)NC(=O)c2cc(O[C@@H](C)C(F)(F)F)c(N3CC(F)(F)C3)cn2)no1` (stereo partly drawn) [Example 102, 5-(3,3-Difluoro-azetidin-1-yl)-4-((S)-2,2,2-trifluoro-1-methyl-ethoxy)-pyridine-2-carboxylic acid [2-methanesulfonyl-1-methyl-1-(5-methyl-[1,2,4]oxadiazol-3-yl)-ethyl]-amide], for which the EC50 (in general, the concentration at which the effect is half-maximal) in assay [1] (read-out: Human CB2 EC50) was 0.116 µM; in assay [2] (setting [3]) it was > 10 µM.
The like results for `CC(C)(C)C(NC(=O)c1cc(OCC(F)(F)F)c(C2CC2)cn1)c1noc(N)n1` (stereo not shown) [Example 192, N-[1-(5-amino-1,2,4-oxadiazol-3-yl)-2,2-dimethylpropyl]-5-cyclopropyl-4-(2,2,2-trifluoroethoxy)pyridine-2-carboxamide] were, in that order, 0.0044 µM and > 10 µM.
The like results for `Cc1nc(C(C)(NC(=O)c2cc(OCC(F)(F)F)c(C3CC3)cn2)C(=O)N2CC3(COC3)C2)no1` (stereo not shown) [Example 148, 5-cyclopropyl-N-[2-(5-methyl-1,2,4-oxadiazol-3-yl)-1-(2-oxa-6-azaspiro[3.3]heptan-6-yl)-1-oxopropan-2-yl]-4-(2,2,2-trifluoroethoxy)pyridine-2-carboxamide] were, in that order, 0.205 µM and > 10 µM.
In the case of `O=C(NCC1(CO)CCCC1)c1cc(OCC2CC2)c(Cl)cn1` [Example 20, 5-Chloro-4-cyclopropylmethoxy-pyridine-2-carboxylic acid (1-hydroxymethyl-cyclopentylmethyl)-amide], the values for the EC50 in assay [1] (read-out: Human CB2 EC50) and in assay [2] (setting [3]) were 0.0232 µM and > 10 µM, respectively.
The like results for `CCC[C@H](CO)NC(=O)c1cc(OCC2CC2)c(Cl)cn1` [Example 13, 5-Chloro-4-cyclopropylmethoxy-pyridine-2-carboxylic acid ((R)-1-hydroxymethyl-butyl)-amide] were, in that order, 0.146 µM and > 10 µM.
For `Cc1nc(C(C)(CC2CC2)NC(=O)c2cc(OCC(F)F)c(C3CC3)cn2)no1` (stereo not shown) [Example 145, 5-cyclopropyl-N-[1-cyclopropyl-2-(5-methyl-1,2,4-oxadiazol-3-yl)propan-2-yl]-4-(2,2-difluoroethoxy)pyridine-2-carboxamide] the same measures were 0.0034 µM and > 10 µM.
Turning to `NC(=O)CC1(NC(=O)c2cc(OCC(F)(F)F)c(N3CC(F)(F)C3)cn2)CS(=O)(=O)C1` [Example 264, N-[3-(2-amino-2-oxoethyl)-1,1-dioxothietan-3-yl]-5-(3,3-difluoroazetidin-1-yl)-4-(2,2,2-trifluoroethoxy)pyridine-2-carboxamide], the results for the EC50 in assay [1] (read-out: Human CB2 EC50) and in assay [2] (setting [3]) were 0.178 µM and > 10 µM, respectively.
The like results for `O=C(NC1(CO)CCCCC1)c1cc(OCC(F)(F)F)c(C2CC2)cn1` [Example 55, 5-Cyclopropyl-4-(2,2,2-trifluoro-ethoxy)-pyridine-2-carboxylic acid (1-hydroxymethyl-cyclohexyl)-amide] were, in that order, 0.0157 µM and > 10 µM.
Turning to `CC(CC1CC1)(NC(=O)c1cc(OCC(F)(F)F)c(C2CC2)cn1)C(N)=O` (stereo not shown) [Example 186, N-(1-amino-3-cyclopropyl-2-methyl-1-oxopropan-2-yl)-5-cyclopropyl-4-(2,2,2-trifluoroethoxy)pyridine-2-carboxamide], the EC50 in assay [1] (read-out: Human CB2 EC50) was 0.343 µM; in assay [2] (setting [3]) it was > 10 µM.
The like results for `CC(C)CC(C)(NC(=O)c1cc(OCC(F)(F)F)c(C2CC2)cn1)C(N)=O` (stereo not shown) [Example 82, 5-Cyclopropyl-4-(2,2,2-trifluoro-ethoxy)-pyridine-2-carboxylic acid (1-carbamoyl-1,3-dimethyl-butyl)-amide] were, in that order, 0.0805 µM and > 10 µM.
Consider `Cn1nnc(C(NC(=O)c2cc(OCC(F)(F)F)c(C3CC3)cn2)C(C)(C)C)n1` (single isomer, unassigned) [Example 210, 5-cyclopropyl-N-[2,2-dimethyl-1-(2-methyltetrazol-5-yl)propyl]-4-(2,2,2-trifluoroethoxy)pyridine-2-carboxamide], for which the results for the concentration giving a half-maximal response (EC50) in assay [1] (Human CB2 EC50 (uM)) and in assay [2] (setting [4]) were 0.0042 µM and > 10 µM, respectively.
Consider `Cc1nc(C(C)(CS(C)(=O)=O)NC(=O)c2cc(OC(C)CF)c(C3CC3)cn2)no1` (single isomer, unassigned) [Example 298, 5-cyclopropyl-4-(1-fluoropropan-2-yloxy)-N-(2-(5-methyl-1,2,4-oxadiazol-3-yl)-1-(methylsulfonyl)propan-2-yl)picolinamide], for which the 50% effective concentration (EC50) is 0.0579 µM in assay [1] (read-out: Human CB2 EC50) and > 10 µM in assay [2] (setting [4]).
Consider `Cn1nnc(C(NC(=O)c2cc(OCC(F)(F)F)c(C3CC3)cn2)C(C)(C)C)n1` (stereo not shown) [Example 163, 5-cyclopropyl-N-[2,2-dimethyl-1-(2-methyltetrazol-5-yl)propyl]-4-(2,2,2-trifluoroethoxy)pyridine-2-carboxamide], for which the values for the EC50 in assay [1] (read-out: Human CB2 EC50) and in assay [2] (setting [3]) were 0.0045 µM and > 10 µM, respectively.
The like results for `CNC(=O)C(NC(=O)c1cc(O[C@@H](C)C(F)(F)F)c(C2CC2)cn1)C(C)(C)C` (stereo partly drawn) [Example 200, 5-cyclopropyl-N-[3,3-dimethyl-1-(methylamino)-1-oxobutan-2-yl]-4-[(2S)-1,1,1-trifluoropropan-2-yl]oxypyridine-2-carboxamide] were, in that order, 0.0026 µM and > 10 µM.
The like results for `CNC(=O)C(NC(=O)c1cc(O[C@@H](C)C(F)(F)F)c(C2CC2)cn1)C(C)(C)O` (stereo partly drawn) [Example 238, 5-cyclopropyl-N-[3-hydroxy-3-methyl-1-(methylamino)-1-oxobutan-2-yl]-4-[(2S)-1,1,1-trifluoropropan-2-yl]oxypyridine-2-carboxamide] were, in that order, 0.0274 µM and > 10 µM.
For `CNC(=O)C(NC(=O)c1cc(OCC(F)(F)F)c(C2CC2)cn1)C(C)(C)F` (stereo not shown) [Example 237, 5-cyclopropyl-N-[3-fluoro-3-methyl-1-(methylamino)-1-oxobutan-2-yl]-4-(2,2,2-trifluoroethoxy)pyridine-2-carboxamide] the same measures were 0.017 µM and > 10 µM.
Turning to `Cc1nc(C(NC(=O)c2cc(O[C@@H](C)C(F)(F)F)c(C3CC3)cn2)C(C)(C)C)no1` (stereo partly drawn) [Example 220, 5-cyclopropyl-N-[2,2-dimethyl-1-(5-methyl-1,2,4-oxadiazol-3-yl)propyl]-4-[(2S)-1,1,1-trifluoropropan-2-yl]oxypyridine-2-carboxamide], the figures for the EC50 in assay [1] (read-out: Human CB2 EC50) and in assay [2] (setting [3]) were 0.0027 µM and > 10 µM, respectively.
For `Cc1nc(C(C)(CS(C)(=O)=O)NC(=O)c2cc(OCC(F)(F)F)c(C3CCC3)cn2)no1` (single isomer, unassigned) [Example 124, 5-cyclobutyl-N-[1-methyl-1-(5-methyl-1,2,4-oxadiazol-3-yl)-2-methylsulfonyl-ethyl]-4-(2,2,2-trifluoroethoxy)pyridine-2-carboxamide], the EC50 in assay [1] (Human CB2 EC50 (uM)) was 0.0159 µM; in assay [2] (setting [5]), > 10 µM.
`NC(=O)CC1(NC(=O)c2cc(OCC(F)(F)F)c(C3CCC3)cn2)CS(=O)(=O)C1` [Example 299, N-[3-(2-amino-2-oxoethyl)-1,1-dioxothietan-3-yl]-5-cyclobutyl-4-(2,2,2-trifluoroethoxy)pyridine-2-carboxamide]: the EC50 is 0.002 µM in assay [1] (read-out: Human CB2 EC50) and > 10 µM in assay [2] (setting [3]).
The like results for `NC(=O)[C@@H]1CC(F)(F)CN1C(=O)c1cc(OCC(F)(F)F)c(C2CC2)cn1` [Example 115, (2S)-1-[5-cyclopropyl-4-(2,2,2-trifluoroethoxy)pyridine-2-carbonyl]-4,4-difluoropyrrolidine-2-carboxamide] were, in that order, 1.26 µM and > 10 µM.
Take `Cc1nc(C(C)(CC2CC2)NC(=O)c2cc(OCC(F)(F)F)c(C3(F)COC3)cn2)no1` (single isomer, unassigned) [Example 135, N-[1-cyclopropyl-2-(5-methyl-1,2,4-oxadiazol-3-yl)propan-2-yl]-5-(3-fluorooxetan-3-yl)-4-(2,2,2-trifluoroethoxy)pyridine-2-carboxamide]: the EC50 in assay [1] (Human CB2 EC50 (uM)) is 0.144 µM; in assay [2] (setting [5]), > 10 µM.
`CC(C)(C)C(NC(=O)c1cc(OCC(F)(F)F)c(C2CC2)cn1)C(N)=O` (stereo not shown) [Example 194, N-(1-amino-3,3-dimethyl-1-oxobutan-2-yl)-5-cyclopropyl-4-(2,2,2-trifluoroethoxy)pyridine-2-carboxamide]: the EC50 was 0.0151 µM in assay [1] (read-out: Human CB2 EC50) and > 10 µM in assay [2] (setting [3]).
For `CNC(=O)CC1(NC(=O)c2cc(O[C@@H](C)C(F)(F)F)c(C3CC3)cn2)COC1` [Example 232, 5-cyclopropyl-N-[3-[2-(methylamino)-2-oxoethyl]oxetan-3-yl]-4-[(2S)-1,1,1-trifluoropropan-2-yl]oxypyridine-2-carboxamide] the same measures were 0.116 µM and > 10 µM.
For `Cc1nc(C(C)(CC2CC2)NC(=O)c2cc(OC(C)CF)c(C3CC3)cn2)no1` (single isomer, unassigned) [Example 290, 5-cyclopropyl-N-(1-cyclopropyl-2-(5-methyl-1,2,4-oxadiazol-3-yl)propan-2-yl)-4-(1-fluoropropan-2-yloxy)picolinamide], the EC50 was 0.0006 µM in assay [1] (read-out: Human CB2 EC50) and > 10 µM in assay [2] (setting [4]).
Consider `CC(CC(N)=O)(NC(=O)c1cc(OCC(F)(F)F)c(C2CC2)cn1)C1CC1` (single isomer, unassigned) [Example 244, N-[4-amino-2-cyclopropyl-4-oxobutan-2-yl]-5-cyclopropyl-4-(2,2,2-trifluoroethoxy)pyridine-2-carboxamide], for which the figures for the EC50 in assay [1] (Human CB2 EC50 (uM)) and in assay [2] (setting [4]) were 0.0284 µM and > 10 µM, respectively.
As for `Cc1nc(C(C)(CC2CC2)NC(=O)c2cc(OCC(F)(F)F)c(C3CCC3)cn2)no1` (single isomer, unassigned) [Example 116, 5-cyclobutyl-N-[1-cyclopropyl-2-(5-methyl-1,2,4-oxadiazol-3-yl)propan-2-yl]-4-(2,2,2-trifluoroethoxy)pyridine-2-carboxamide], the EC50 in assay [1] (Human CB2 EC50 (uM)) is 0.0041 µM; in assay [2] (setting [5]) it was > 10 µM.
